{"source": "patent US4703061A", "about": "“Gamma-aminobutyric acid derivatives, process for production thereof, and use thereof as medicaments” (priority 1984, dated 1987)", "key": {"[1]": {"system": "motor activity induced by atropine", "assay": "Antagonistic effect against atropine (automex method)", "type": "in vivo, ddY-strain male mice", "protocol": "(§1) In Tests 1 to 4 given below, ddY-strain male mice (body weight 20-25 g) were used, and the experiments were carried out in a semi-soundproof, constant-temperature room kept at a temperature of 23±1° C. and a humidity of 55±2%. The mice were allowed to take feed and water freely.\nTest 4: Antagonistic effect against atropine (automex method)\nEach of the test compounds was intraperitoneally administered to mice divided into 6-membered groups, and immediately then, atropine was subcutaneously injected into the mice in a dose of 30 mg/kg. The effect of each test compound on the enhancement of motor activity induced by atropine was examined in accordance with the automex method."}, "[2]": {"settings": "background statement; cited from earlier work"}, "[3]": {"settings": "background statement; cited from earlier work", "remark": "listed apart in the source"}, "[4]": {"system": "motor activity enhanced by methamphetamine", "assay": "Antagonistic effect against methamphetamine (automex method)", "type": "in vivo, ddY-strain male mice", "settings": "for Motor activity (total number of counts): 500 mg/kg i.p. + methamphetamine 3 mg/kg s.c.", "protocol": "as §1\nTest 2: Antagonistic effect against methamphetamine (automex method)\nMice were used in 5-membered groups. Each of the test compounds was intraperitoneally administered to the mice in a predetermined dose, and immediately then, the mice were subcutaneously injected with methamphetamine in a dose of 3 mg/kg. The action of the test compounds on motor activity enhanced by methamphetamine was examined in accordance with the automex method given above."}, "[5]": {"system": "sleeping induced by pentobarbital", "assay": "Effect of prolonging the time of sleeping induced by pentobarbital", "type": "in vivo, ddY-strain male mice", "settings": "pentobarbital sodium 50 mg/kg s.c.", "protocol": "as §1\nTest 3: Effect of prolonging the time of sleeping induced by pentobarbital\nThe effects of the test compounds on sleeping induced by pentobarbital were examined. The disappearance of righting reflex for 5 seconds or more was used as an index of sleeping. Mice were divided into 10-membered groups. Each of the test compounds was intraperitoneally administered to the mice in the doses indicated. Immediately then, pentobarbital sodium salt was subcutaneously injected into the mice in a dose of 50 mg/kg, and the sleeping time was compared with that of a group to which pentobarbital alone was injected (control)."}, "[6]": {"system": "cycloheximide-induced amnesia model", "assay": "Effects on CXM-induced amnesia (step-down retention test)", "type": "in vivo, ddY-strain male mice", "settings": "for Escape learning latency (mean ± S.E.) / Step-down latency (mean ± S.E.): retention test 24 hours", "protocol": "The test animals used were ddY-strain male mice (body weight 30-35 g). The experiment was carried out indoors at about 20° C., and the mice were allowed to take feed and water freely. 2. Effects on memorized behaviors\nA device comprised of a floor grid surrounded on four sides by acrylic glass walls each having a lateral dimension of 21 cm and a wooden platform, 4×4×4 cm in size, fixed centrally to the floor grid was placed in a wooden semi-soundproof box having a size of 21×21×40 cm with a 15W electric bulb suspended from its ceiling.\nThe floor grid consisted of stainless steel rods, 3 mm in diameter, arranged at intervals of 8 mm. An intermittent electric shock (1 Hz, 0.5 sec., 60 V DC) was applied to the grid by an electric impulse apparatus and an isolator.\nA mouse was placed in a predetermined direction on the platform. Immediately after the mouse stepped down onto the floor grid (when the mouse's four limbs left the platform), an electric shock was applied to the floor grid, and the intermittent application of the electric shock was continued until the mouse climbed up the platform to escape from the electric shock. The time which elapsed until the mouse stepped down from the platform (SDL, step down latency) and the time which elapsed until the mouse escaped to the platform from the electric shock (ELL, escape learning latency) were measured.\nBy the same procedure as in the training test, a mouse was placed on the platform, and its step down latency (SDL) was measured. The cut-off time was 300 seconds.\nAfter the mouse stepped down, or the cut-off time elapsed, the mouse was placed on the floor grid at a corner of the device with its head directed in a direction opposite to the platform. An electric shock was applied to the mouse and its escape learning latency (ELL) was measured.\nMice divided into groups each consisting of not less than 20 mice were subjected to the training test, and immediately then subcutaneously injected with CXM (150 mg/kg). Twenty-four hours later, the mice was subjected to the retention test.\nImmediately after administration of CXM or application of ECS, a 0.9% normal saline solution of each of the test compounds was intraperitoneally administered to the mice. Separately, a 5% gum arabic solution of CXM was administered to the mice in a control group."}, "[7]": {"settings": "500 mg/kg i.p., CXM 150 mg/kg s.c."}, "[8]": {"settings": "1000 mg/kg i.p., CXM 150 mg/kg s.c."}}, "note": "Where a name gives a salt, the structure may show the parent alone.", "data": [{"smiles": "CN1[C@@H]2CC[C@H]1C[C@@H](OC(=O)C(CO)c1ccccc1)C2", "note": "(stereo partly drawn) [Atropine, atropine]", "values": [{"measurement": "Motor activity (total number of counts)", "setting": "[1]; atropine alone, 30 mg/kg, 5 minutes", "result": 59, "unit": "counts"}, {"measurement": "Motor activity (total number of counts)", "setting": "[1]; atropine alone, 30 mg/kg, 10 minutes", "result": 233, "unit": "counts"}, {"measurement": "Motor activity (total number of counts)", "setting": "[1]; atropine alone, 30 mg/kg, 15 minutes", "result": 425, "unit": "counts"}, {"measurement": "Motor activity (total number of counts)", "setting": "[1]; atropine alone, 30 mg/kg, 20 minutes", "result": 620, "unit": "counts"}, {"measurement": "Motor activity (total number of counts)", "setting": "[1]; atropine alone, 30 mg/kg, 25 minutes", "result": 806, "unit": "counts"}, {"measurement": "Motor activity (total number of counts)", "setting": "[1]; atropine alone, 30 mg/kg, 30 minutes", "result": 964, "unit": "counts"}]}, {"smiles": "NCCCC(=O)O", "note": "[gamma-aminobutyric acid]", "values": [{"measurement": "transmigration through the blood brain barrier", "setting": "[2]", "result": "hardly transmigrates through the blood brain barrier"}, {"measurement": "excretion into urine", "setting": "[3]", "result": "easily excreted into urine"}]}, {"smiles": "CC(C)(CO)C(O)C(=O)NCCCC(=O)O", "note": "(stereo not drawn) [Ca salt of hopantenic acid, Calcium 4(2,4-dihydroxy3,3-dimethyl-butylamide)butyrate, reference compound]", "values": [{"measurement": "Motor activity (total number of counts)", "setting": "[4]; 5 minutes", "result": 26, "unit": "counts"}, {"measurement": "Motor activity (total number of counts)", "setting": "[4]; 10 minutes", "result": 55, "unit": "counts"}, {"measurement": "Motor activity (total number of counts)", "setting": "[4]; 15 minutes", "result": 94, "unit": "counts"}, {"measurement": "Motor activity (total number of counts)", "setting": "[4]; 20 minutes", "result": 144, "unit": "counts"}, {"measurement": "Motor activity (total number of counts)", "setting": "[4]; 25 minutes", "result": 273, "unit": "counts"}, {"measurement": "Motor activity (total number of counts)", "setting": "[4]; 30 minutes", "result": 408, "unit": "counts"}, {"measurement": "antagonistic effect against the increase of motor activity induced by methamphetamine", "setting": "[4]; 500 mg/kg, result in words", "result": "scarcely observed"}, {"measurement": "Sleeping time", "setting": "[5]; 1000 mg/kg i.p.", "result": "57.0 ± 6.7", "unit": "min"}, {"measurement": "Sleeping time", "setting": "[5]; 2000 mg/kg i.p.", "result": "67.0 ± 5.9", "unit": "min"}, {"measurement": "Motor activity (total number of counts)", "setting": "[1]; 600 mg/kg i.p. + atropine 30 mg/kg s.c., 5 minutes", "result": 16, "unit": "counts"}, {"measurement": "Motor activity (total number of counts)", "setting": "[1]; 600 mg/kg i.p. + atropine 30 mg/kg s.c., 10 minutes", "result": 16, "unit": "counts"}, {"measurement": "Motor activity (total number of counts)", "setting": "[1]; 600 mg/kg i.p. + atropine 30 mg/kg s.c., 15 minutes", "result": 29, "unit": "counts"}, {"measurement": "Motor activity (total number of counts)", "setting": "[1]; 600 mg/kg i.p. + atropine 30 mg/kg s.c., 20 minutes", "result": 56, "unit": "counts"}, {"measurement": "Motor activity (total number of counts)", "setting": "[1]; 600 mg/kg i.p. + atropine 30 mg/kg s.c., 25 minutes", "result": 88, "unit": "counts"}, {"measurement": "Motor activity (total number of counts)", "setting": "[1]; 600 mg/kg i.p. + atropine 30 mg/kg s.c., 30 minutes", "result": 151, "unit": "counts"}, {"measurement": "Escape learning latency (mean ± S.E.)", "setting": "[6]; [7]", "result": "10.3 ± 0.7", "unit": "s"}, {"measurement": "Step-down latency (mean ± S.E.)", "setting": "[6]; [7]", "result": "122.3 ± 13.0", "unit": "s"}, {"measurement": "Escape learning latency (mean ± S.E.)", "setting": "[6]; [8]", "result": "8.2 ± 1.0", "unit": "s"}, {"measurement": "Step-down latency (mean ± S.E.)", "setting": "[6]; [8]", "result": "187.7 ± 19.7", "unit": "s"}, {"measurement": "Escape learning latency (mean ± S.E.)", "setting": "[6]; 1000 mg/kg i.p., without CXM", "result": "5.6 ± 0.8", "unit": "s"}, {"measurement": "Step-down latency (mean ± S.E.)", "setting": "[6]; 1000 mg/kg i.p., without CXM", "result": "275.9 ± 9.7", "unit": "s"}, {"measurement": "memory activating action", "setting": "[6]; without CXM, vs control group, result in words", "result": "did not show memory activating action"}]}]}
